This note sets out measurements from ChEMBL document CHEMBL1201862, “PubChem BioAssay data set” (2004).

Assay [1] addresses T1, Short transient receptor potential channel 4 (Mus musculus, UniProt Q9QUQ5).
T1 sequence (Q9QUQ5 whole entry): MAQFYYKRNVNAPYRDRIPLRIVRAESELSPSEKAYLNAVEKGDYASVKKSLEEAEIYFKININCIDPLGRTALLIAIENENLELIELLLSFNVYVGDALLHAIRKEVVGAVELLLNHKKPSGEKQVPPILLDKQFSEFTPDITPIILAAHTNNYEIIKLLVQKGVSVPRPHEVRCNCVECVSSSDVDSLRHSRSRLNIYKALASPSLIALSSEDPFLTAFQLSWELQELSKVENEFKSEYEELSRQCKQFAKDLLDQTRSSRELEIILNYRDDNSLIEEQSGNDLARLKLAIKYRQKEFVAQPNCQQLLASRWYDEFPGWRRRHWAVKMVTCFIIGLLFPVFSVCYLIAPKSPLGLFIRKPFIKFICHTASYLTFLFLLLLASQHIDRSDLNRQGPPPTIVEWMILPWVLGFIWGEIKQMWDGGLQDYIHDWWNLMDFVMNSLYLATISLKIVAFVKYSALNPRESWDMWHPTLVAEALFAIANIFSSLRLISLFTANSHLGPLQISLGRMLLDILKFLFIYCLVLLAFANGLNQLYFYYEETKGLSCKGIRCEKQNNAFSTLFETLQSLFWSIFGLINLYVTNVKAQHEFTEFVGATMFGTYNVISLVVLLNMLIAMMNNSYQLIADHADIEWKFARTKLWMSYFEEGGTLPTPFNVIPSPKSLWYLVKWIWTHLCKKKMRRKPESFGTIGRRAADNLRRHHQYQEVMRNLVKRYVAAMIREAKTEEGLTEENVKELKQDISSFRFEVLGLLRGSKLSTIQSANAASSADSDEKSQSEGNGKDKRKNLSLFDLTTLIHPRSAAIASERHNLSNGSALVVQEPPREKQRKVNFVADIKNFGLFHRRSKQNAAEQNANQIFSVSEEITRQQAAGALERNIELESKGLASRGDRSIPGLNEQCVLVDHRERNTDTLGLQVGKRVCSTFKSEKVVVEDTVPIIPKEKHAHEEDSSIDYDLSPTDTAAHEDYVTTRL
Kind of assay: mouse TRPC4 channel inhibitors, dose response, cell-based, HEK293 TRPC4/mu-opioid, Fluo-4 calcium (AID 434942).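 Note: potency of inhibitors blocking the TRPC4 calcium response.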 It counts as functional.

The target of assay [2] is Eukaryotic translation initiation factor 4E (Mus musculus, UniProt P63073). Briefly: eIF4E–eIF4G protein interaction inhibitors, dose response, biochemical, TR-FRET (AID 855).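 Note: potency for disrupting eIF4E binding to eIF4GI seen as loss of FRET.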 It counts as functional.
The next assay can be described thus: cells. It is filed as functional.
A short description of assay [3]: HepG2 cell cytotoxicity, dose response, cytotoxicity control for non-replicating M. tuberculosis project (AID 489018). It counts as functional. Conditions: Mycobacterium tuberculosis.
Assay [4] in a line: Vero E6 cell cytotoxicity, dose response, cytotoxicity control for non-replicating M. tuberculosis project, secondary assay (AID 492998). It counts as functional, VeroE6. The note with it: Vero C1008.
A short description of assay [5]: THP-1 cell cytotoxicity, dose response, cytotoxicity control for non-replicating M. tuberculosis project (AID 489025). It is filed as functional.
For a further assay, the system named is H4. Kind of assay: Luminescence Cell-Based Dose Response HTS to Identify Activators of 5'UTR Stem-Loop Driven Prion Protein mRNA Translation in H4 Neuroglioblastoma Cells. [Related pubchem assays: 1829 (Project Summary), 1814 (Primary HTS)]. Conditions: Homo sapiens. It is filed as functional.
Assay [6] addresses Peroxisome proliferator-activated receptor gamma/Nuclear receptor coactivator 3 (Homo sapiens, UniProt P37231). It counts as functional.
The target in the next assay is Cytochrome P450 2C19 (Homo sapiens, UniProt P33261). Briefly: Cytochrome panel assay with activity outcomes. Panel member name: p450-cyp2c19 Compounds with AC50 equal or less than 10 uM are considered active. It counts as functional. Conditions: read-out: AC50.
For assay [7], the target named is Peroxisome proliferator-activated receptor gamma/Nuclear receptor coactivator 2 (Homo sapiens, UniProt P37231). It counts as functional.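 Note: agonist potency for raising coactivator recruitment to the receptor.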
Assay [8] has as its target Peroxisome proliferator-activated receptor gamma/Nuclear receptor coactivator 1 (Homo sapiens, UniProt P37231). It is filed as functional.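 Note: agonist potency as compounds enhance coactivator SRC-1 recruitment to PPARgamma.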
Assay [9] has as its target Voltage-dependent T-type calcium channel subunit alpha-1H (Homo sapiens, UniProt O95180). It is filed as functional.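 Note: channel activity triggered by adding a high calcium stimulation buffer.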
A further assay addresses Cytochrome P450 3A4 (Homo sapiens, UniProt P08684). Conditions: Potency.
A short description of assay [10]: cytotoxicity in HEK-293T cells, dose response, cytotoxicity control for BCR NF-kB inhibitor project, luminescence, B-cell screen hits (AID 489021).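 Note: HEK-293T cells carrying an NF-kB luciferase reporter; cells exposed to compound for about 14 hours before viability readout.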 It is filed as functional, cell-based.
Assay [11] concerns BJ. Kind of assay: cytotoxicity toward BJ-TERT-LT-ST fibroblasts, dose response, cell-based, RAS-independent, luminescence (AID 1935).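 Note: BJ fibroblasts immortalized with TERT plus LT and ST oncogenes.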 It is filed as functional. The note with it: Homo sapiens.
Assay [12] concerns BJ. Briefly: cells. The note with it: Homo sapiens. It is filed as functional, cell-based.
For assay [13], the system named is BJ. Kind of assay: cytotoxicity toward BJ-TERT fibroblasts, dose response, cell-based, RAS-independent, luminescence (AID 1933). Conditions: Homo sapiens. It counts as functional.
The nature of assay [14]: cytotoxicity toward DRD oncogenic fibroblasts, dose response, cell-based, non-viral oncogenic, luminescence (AID 1934). It is filed as functional. The note with it: Homo sapiens.
Assay [15] can be described thus: cytotoxicity in HEK-293T cells, dose response, cytotoxicity control for TCR NF-kB inhibitor project, luminescence, T-cell screen hits (AID 489026).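 Note: cells exposed to compound about 14 hours before the viability readout.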 It counts as functional, cell-based.
In the next assay the test system is INS1. Kind of assay: beta cell apoptosis inhibitors, cytokine rescue, dose response, luminescence, retest (AID 449756).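 Note: cell death triggered by IL-1 beta plus TNF-alpha plus IFN-gamma mixture; protective hits raise ATP signal compared with cytokine alone wells.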 The note with it: Rattus norvegicus. It counts as functional, cell-based.
Assay [16] is described as follows: A cytotoxicity screen of small molecule inhibitors of the PhoP region in Salmonella typhi identified in the primary screen. [Related pubchem assays: 1850, 1864, 1985 ]. It counts as functional.
A short description of assay [17]: Shn3 3'UTR reporter inhibitors, dose response, cell-based, Clone20 osteoblasts, firefly luciferase, cherry-picked (AID 624132).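 Note: firefly luciferase luminescence from reporter carrying the Shn3 3'UTR in osteoblasts.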 It is filed as functional.
The nature of assay [18]: HepG2 cell cytotoxicity, dose response, cytotoxicity control for Shn3 inhibitor project, CellTiter-Glo, cherry-picked (AID 624134). It is filed as functional, cell-based.
A short description of assay [19]: control 3'UTR Renilla luciferase suppression, dose response, counter-screen for Shn3 inhibitor project, cell-based, Clone20-Shn3RL, cherry-picked (AID 624133). It counts as functional.
A short description of assay [20]: Luminescence Cell-Based Dose Retest to Confirm Inhibitors of Cancer Stem Cells. [Related pubchem assays (depositor defined):AID2717, AID2721]. It is filed as functional. The note with it: Homo sapiens.
Assay [21] can be described thus: inhibitors of intracellular T. cruzi replication, confirmation, NIH3T3 host cells, beta-gal luminescence (AID 2044).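 Note: intracellular parasites grown in NIH/3T3 mouse fibroblasts as host cells; luminescent beta-galactosidase reporter signal from transgenic T. cruzi replicating inside host cells; inhibitors lower the luminescence signal.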 It is filed as functional, cell-based.
Assay [22] is described as follows: A549 cell cytotoxicity, dose response, cytotoxicity control, plate reader, cherry-pick, antagonist series (AID 743412). It is filed as functional, cell-based.
Assay [23] in a line: HEK293 cell cytotoxicity, dose response, cytotoxicity control, plate reader, cherry-picked samples (AID 743446). It counts as functional, cell-based.
Assay [24] is described as follows: cytotoxicity toward NIH3T3 fibroblasts, dose response, counter-screen, cell-based, ATP luminescence, mouse fibroblasts (AID 2010).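 Note: cells exposed to compound for about 90 hours before reading.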 It is filed as functional.
The nature of assay [25]: HepG2 cell cytotoxicity, dose response, cytotoxicity control, plate reader, cherry-pick, antagonist series (AID 743416). It counts as functional, cell-based.
Assay [26] in a line: LGR2 antagonists, dose response, cell-based, HEK293, CRE-luciferase reporter, cherry pick, set 2 (AID 743343).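 Note: transfected cells were stimulated with diluted bursicon conditioned medium after compound addition.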 It counts as functional.
Assay [27] is described as follows: MC4R antagonists, dose response, counter-screen for LGR2 antagonist project, cell-based, plate reader, cherry pick (AID 743444).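 Note: transfected HEK 293 cells stimulated with alpha-MSH peptide; potency of inhibitors of the alpha-MSH evoked signal.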 It counts as functional.

Calls of active or inactive are those of the source. Some results are limits rather than exact numbers.

Sequence of Eukaryotic translation initiation factor 4E (P63073 whole entry): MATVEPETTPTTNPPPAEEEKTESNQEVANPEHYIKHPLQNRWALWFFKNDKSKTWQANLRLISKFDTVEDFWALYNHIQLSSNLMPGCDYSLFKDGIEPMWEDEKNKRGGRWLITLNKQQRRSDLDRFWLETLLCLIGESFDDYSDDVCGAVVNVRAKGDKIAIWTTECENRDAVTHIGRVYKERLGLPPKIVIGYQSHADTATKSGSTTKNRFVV
Sequence of Cytochrome P450 3A4 (P08684 whole entry): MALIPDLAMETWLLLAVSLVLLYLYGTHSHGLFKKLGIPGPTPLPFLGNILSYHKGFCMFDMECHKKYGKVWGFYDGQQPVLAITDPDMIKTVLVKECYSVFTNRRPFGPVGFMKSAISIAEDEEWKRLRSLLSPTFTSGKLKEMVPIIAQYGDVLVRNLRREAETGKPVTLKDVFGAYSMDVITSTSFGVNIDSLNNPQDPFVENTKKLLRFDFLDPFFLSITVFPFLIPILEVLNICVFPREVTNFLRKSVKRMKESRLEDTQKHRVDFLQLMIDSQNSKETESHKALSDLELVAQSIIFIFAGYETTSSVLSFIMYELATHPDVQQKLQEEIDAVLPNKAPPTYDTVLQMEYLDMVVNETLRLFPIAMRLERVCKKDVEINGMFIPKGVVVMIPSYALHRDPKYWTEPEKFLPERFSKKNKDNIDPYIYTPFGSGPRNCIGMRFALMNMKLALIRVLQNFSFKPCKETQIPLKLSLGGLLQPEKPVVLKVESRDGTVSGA
Sequence of Voltage-dependent T-type calcium channel subunit alpha-1H (O95180 whole entry): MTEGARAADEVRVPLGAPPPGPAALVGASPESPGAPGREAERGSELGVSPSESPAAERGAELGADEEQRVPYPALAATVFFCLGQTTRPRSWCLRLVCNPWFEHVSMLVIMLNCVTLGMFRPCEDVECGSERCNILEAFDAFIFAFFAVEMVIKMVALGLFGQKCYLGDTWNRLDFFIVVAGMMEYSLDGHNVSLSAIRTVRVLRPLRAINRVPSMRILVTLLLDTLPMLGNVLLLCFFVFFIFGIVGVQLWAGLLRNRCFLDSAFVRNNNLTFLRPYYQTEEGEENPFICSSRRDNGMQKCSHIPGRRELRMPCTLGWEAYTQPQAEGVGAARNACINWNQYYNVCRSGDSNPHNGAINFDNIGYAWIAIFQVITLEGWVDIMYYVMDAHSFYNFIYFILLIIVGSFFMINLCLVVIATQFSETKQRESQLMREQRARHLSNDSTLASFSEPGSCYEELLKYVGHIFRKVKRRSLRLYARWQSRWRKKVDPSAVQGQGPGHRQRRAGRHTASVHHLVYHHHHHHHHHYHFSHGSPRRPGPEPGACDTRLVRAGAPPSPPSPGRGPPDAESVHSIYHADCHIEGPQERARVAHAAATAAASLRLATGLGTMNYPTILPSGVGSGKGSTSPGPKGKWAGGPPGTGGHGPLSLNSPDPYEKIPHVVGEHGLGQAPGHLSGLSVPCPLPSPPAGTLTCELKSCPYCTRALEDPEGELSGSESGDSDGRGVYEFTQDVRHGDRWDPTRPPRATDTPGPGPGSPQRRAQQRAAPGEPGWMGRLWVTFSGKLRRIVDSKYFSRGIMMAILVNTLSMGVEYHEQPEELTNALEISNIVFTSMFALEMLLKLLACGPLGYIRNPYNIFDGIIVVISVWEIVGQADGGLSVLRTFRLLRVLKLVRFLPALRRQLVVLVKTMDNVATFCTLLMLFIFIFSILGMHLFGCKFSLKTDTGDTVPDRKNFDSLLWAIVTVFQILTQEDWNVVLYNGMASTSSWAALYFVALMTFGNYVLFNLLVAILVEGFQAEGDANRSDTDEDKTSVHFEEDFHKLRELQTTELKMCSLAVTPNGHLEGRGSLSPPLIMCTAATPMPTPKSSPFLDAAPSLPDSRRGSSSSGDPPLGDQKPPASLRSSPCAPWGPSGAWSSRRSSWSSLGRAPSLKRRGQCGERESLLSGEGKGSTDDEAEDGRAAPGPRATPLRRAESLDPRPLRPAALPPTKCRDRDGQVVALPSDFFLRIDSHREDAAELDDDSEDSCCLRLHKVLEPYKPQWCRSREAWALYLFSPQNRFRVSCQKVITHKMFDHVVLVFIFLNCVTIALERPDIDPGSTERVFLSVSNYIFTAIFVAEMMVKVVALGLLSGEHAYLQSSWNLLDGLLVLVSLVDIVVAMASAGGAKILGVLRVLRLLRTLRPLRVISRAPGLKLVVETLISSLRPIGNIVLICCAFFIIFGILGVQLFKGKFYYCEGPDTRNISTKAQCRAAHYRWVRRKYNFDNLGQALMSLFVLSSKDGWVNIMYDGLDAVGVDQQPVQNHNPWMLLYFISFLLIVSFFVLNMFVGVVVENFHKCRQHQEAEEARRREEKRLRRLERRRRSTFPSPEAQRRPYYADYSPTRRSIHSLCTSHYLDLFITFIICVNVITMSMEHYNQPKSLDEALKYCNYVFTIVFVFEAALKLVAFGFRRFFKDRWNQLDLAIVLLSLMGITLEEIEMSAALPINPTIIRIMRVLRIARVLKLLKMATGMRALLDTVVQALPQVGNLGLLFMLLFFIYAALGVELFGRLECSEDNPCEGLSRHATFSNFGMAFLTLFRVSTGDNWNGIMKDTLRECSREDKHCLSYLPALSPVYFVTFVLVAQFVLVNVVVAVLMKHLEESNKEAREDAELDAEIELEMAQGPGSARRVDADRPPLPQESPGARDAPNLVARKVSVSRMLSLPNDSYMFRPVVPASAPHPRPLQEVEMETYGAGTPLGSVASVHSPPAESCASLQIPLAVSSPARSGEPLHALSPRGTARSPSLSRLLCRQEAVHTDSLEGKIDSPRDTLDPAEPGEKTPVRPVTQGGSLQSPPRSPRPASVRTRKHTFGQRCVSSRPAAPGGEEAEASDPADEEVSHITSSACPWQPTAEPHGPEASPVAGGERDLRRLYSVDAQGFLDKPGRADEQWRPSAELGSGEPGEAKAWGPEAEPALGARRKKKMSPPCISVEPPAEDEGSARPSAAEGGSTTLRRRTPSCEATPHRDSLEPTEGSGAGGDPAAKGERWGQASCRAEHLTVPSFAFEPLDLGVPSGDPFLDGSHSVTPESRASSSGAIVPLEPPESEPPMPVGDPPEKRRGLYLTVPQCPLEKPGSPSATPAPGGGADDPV
Sequence of Peroxisome proliferator-activated receptor gamma/Nuclear receptor coactivator 1 (P37231 whole entry): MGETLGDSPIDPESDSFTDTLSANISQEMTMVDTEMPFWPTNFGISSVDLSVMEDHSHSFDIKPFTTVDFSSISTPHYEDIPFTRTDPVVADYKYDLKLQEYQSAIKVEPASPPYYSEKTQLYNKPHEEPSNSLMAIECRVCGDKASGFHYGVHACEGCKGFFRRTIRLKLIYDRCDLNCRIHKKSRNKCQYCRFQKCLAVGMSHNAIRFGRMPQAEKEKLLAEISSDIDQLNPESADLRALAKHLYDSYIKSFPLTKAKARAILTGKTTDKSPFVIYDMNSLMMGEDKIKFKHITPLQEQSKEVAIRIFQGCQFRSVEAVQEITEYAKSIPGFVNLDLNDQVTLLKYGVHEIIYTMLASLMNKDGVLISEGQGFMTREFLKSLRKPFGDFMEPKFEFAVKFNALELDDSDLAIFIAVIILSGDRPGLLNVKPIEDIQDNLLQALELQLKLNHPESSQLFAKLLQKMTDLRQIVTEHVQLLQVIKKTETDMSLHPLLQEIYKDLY
Sequence of Peroxisome proliferator-activated receptor gamma/Nuclear receptor coactivator 1 (Q15788 whole entry, further chain): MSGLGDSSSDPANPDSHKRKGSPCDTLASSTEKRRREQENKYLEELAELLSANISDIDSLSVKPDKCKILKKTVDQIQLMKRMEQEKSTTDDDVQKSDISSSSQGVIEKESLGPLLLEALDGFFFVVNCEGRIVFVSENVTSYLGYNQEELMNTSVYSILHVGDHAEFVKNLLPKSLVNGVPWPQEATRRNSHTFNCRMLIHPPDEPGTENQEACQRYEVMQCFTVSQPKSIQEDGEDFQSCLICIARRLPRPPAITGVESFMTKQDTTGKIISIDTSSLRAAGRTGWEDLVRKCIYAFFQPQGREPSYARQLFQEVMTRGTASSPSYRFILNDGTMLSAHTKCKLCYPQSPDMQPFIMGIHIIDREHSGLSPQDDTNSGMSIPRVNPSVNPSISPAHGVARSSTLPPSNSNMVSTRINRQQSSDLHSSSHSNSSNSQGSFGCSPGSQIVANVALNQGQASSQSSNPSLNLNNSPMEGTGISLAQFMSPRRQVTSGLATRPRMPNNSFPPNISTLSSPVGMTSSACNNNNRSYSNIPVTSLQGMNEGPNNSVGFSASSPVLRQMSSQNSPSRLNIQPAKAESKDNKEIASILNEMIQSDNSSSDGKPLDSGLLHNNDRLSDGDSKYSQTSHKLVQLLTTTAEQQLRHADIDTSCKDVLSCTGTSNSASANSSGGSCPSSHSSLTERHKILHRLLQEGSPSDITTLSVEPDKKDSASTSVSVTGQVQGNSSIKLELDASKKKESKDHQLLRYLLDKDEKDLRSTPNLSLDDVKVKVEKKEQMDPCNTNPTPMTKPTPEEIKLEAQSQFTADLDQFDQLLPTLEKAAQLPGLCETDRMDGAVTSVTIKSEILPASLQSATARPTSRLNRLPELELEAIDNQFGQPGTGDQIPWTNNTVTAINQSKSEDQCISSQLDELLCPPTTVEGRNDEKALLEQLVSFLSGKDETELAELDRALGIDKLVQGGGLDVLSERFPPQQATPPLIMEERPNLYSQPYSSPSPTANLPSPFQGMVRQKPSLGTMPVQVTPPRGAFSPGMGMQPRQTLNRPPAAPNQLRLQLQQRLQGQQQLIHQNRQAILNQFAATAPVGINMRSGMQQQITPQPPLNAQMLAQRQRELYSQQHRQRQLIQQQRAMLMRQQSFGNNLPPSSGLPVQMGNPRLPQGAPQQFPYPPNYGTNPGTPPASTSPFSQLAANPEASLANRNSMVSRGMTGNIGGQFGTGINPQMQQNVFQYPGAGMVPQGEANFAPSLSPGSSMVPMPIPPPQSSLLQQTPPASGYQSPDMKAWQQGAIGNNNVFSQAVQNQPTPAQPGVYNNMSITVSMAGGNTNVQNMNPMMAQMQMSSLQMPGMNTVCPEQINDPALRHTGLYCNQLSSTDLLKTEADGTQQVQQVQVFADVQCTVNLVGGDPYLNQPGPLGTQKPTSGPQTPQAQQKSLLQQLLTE

Turning to `c1ccc(-c2nc(NCc3ccco3)c3ccccc3n2)cc1`, the EC50 in [1] is 3.76 µM (active).

On to `CC(=O)N1CCN(c2ccccc2NC(=O)c2ccc3ccccc3c2)CC1`, for which the EC50 in assay [1] is 1.5 µM (active).

Take `CC1=CC2=NC(=O)/C(=C\c3cc(C)n(-c4ccccc4)c3C)C(=N)N2O1`: the IC50 in assay [2] was > 64 µM (inactive).

In the case of `COc1ccc(/C=C2\Sc3ccc(C(=O)NCCN4CCCCCC4)cc3N(C)C2=O)cc1`, in the assay “cells”, the half-maximal inhibitory concentration (IC50) is 19 µM (active). For the same compound, the results for the 50% cytotoxic concentration (CC50) in [3], in [4] and in assay [5] were 14.3 µM (active), > 20 µM (active) and 17.9 µM (active), respectively.

Turning to `CCOC(=O)C1(CCOc2ccccc2)CCN(Cc2cccn2-c2ncccn2)CC1`, in assay [1], the concentration giving a half-maximal response (EC50) was 1.88 µM (active).

Consider `Cc1ccc(N/N=C2/C(=N)N(c3ccccc3)NC2=O)cc1`, for which the concentration giving a half-maximal response (EC50) in the assay with H4 is 10.6 µM (active); in [6], > 79.4 µM (not active); in assay [7], > 79.4 µM (not active); in assay [8] it was > 79.4 µM (not active). In addition, the AC50 at Cytochrome P450 2C19 is 5.01 µM (inconclusive).

Regarding `CCC(CC)c1nnc(NC(=O)C2COc3ccccc3O2)s1` (centres undefined), the EC50 in assay [9] was 3.85 µM (active).

Regarding `Cc1ccc(S(=O)(=O)Nc2c(C)n(C)n(-c3ccccc3)c2=O)cc1C(=O)NCc1ccccn1`, the IC50 in [2] was > 64 µM (inactive).

Consider `COc1ccc2ccccc2c1C1CC(=O)N2CN(C)CSC2=C1C#N` (centres undefined), for which the IC50 in assay [2] is > 64 µM (inactive).

Regarding `Oc1ccc(C2Oc3cc(O)cc(O)c3CC2O)cc1` (centres undefined), the concentration at half-maximal activity (AC50) at Cytochrome P450 3A4 was 12.6 µM (inconclusive).

As for `Cc1ccc(C(=O)CSc2nnc(COc3cccc(C)c3)o2)cc1`, the IC50 in [10] is > 80 µM (inactive).

`COC(=O)CC1[C@@]2(C)C[C@@]34OC5(C)OC6(CC[C@@]7(C)C(c8ccoc8)OC(=O)C(C(C)=O)C7[C@]6(O5)C(O)[C@@]3(O)C2O)[C@]14C` (some centres undefined): the half-maximal activity concentration (AC50) at Cytochrome P450 3A4 was 39.8 µM (inconclusive).

In the case of `COc1ccccc1N1CCN(C(=O)C2c3ccccc3Oc3ccccc32)CC1`, the half-maximal effective concentration (EC50) in [9] was 3.44 µM (active); in the assay on BJ [11] it was 1.65 µM (inconclusive); with BJ [12], 40.2 µM (inconclusive); in the assay with BJ [13], 2.13 µM (active); in [14], 2.06 µM (inconclusive). Also, in [15], the IC50 was > 80 µM (inactive).

With `COc1c(OC)c(O)c2c(=O)cc(-c3c(O)cccc3O)oc2c1OC`, the EC50 in assay [6], in [7] and in assay [8] was > 79.4 µM (not active) each time.

For `O=C(N/N=C/c1ccc(Cl)cc1Cl)c1ccc(-n2cnnn2)cc1`, the IC50 in [10] is > 80 µM (inactive).

For `CCN(Cc1ccccc1)C(c1ccc(C(F)(F)F)cc1)c1nnnn1C(C)(C)C` (centres undefined), in [9], the half-maximal effective concentration (EC50) was 11.8 µM (active). In addition, in the assay on INS1, the half-maximal activity concentration (AC50) was 6.45 µM (active).

Consider `CCCCCCN(C(=O)CCCCCN1C(=O)NC(c2ccc(-c3ccccc3)cc2)C(C(=O)OCc2ccccc2)=C1C)C(C(=O)NCCCC)c1ccccn1` (centres undefined), for which the half-maximal activity concentration (AC50) at Cytochrome P450 3A4 was 1 µM (inconclusive).

For `Cn1cnnc1SCC(=O)Nc1ccc2nc(SCc3ccccc3)sc2c1`, the concentration for a half-maximal effect (EC50) in assay [16] was > 50 µM (active).

With `CCOc1ccc2[nH]c3c(N4CCN(c5ccccn5)CC4)ncnc3c2c1`, in assay [1], the EC50 was 1.19 µM (active).

Consider `CC(NCc1ccc(OCc2ccc(Cl)cc2)cc1)C(O)c1ccccc1` (centres undefined), for which the half-maximal activity concentration (AC50) in assay [17] is 10.9 µM (active); in [18] it was 14.6 µM (active); in assay [19], 21.2 µM (active); in assay [20], 3.57 µM (active). Moreover, the concentration for half-maximal inhibition (IC50) in “cells” was 13.3 µM (active). Besides, the cytotoxic concentration (CC50) in assay [3] was 15.5 µM (active); in assay [4], 14.6 µM (active); in [5], 9.8 µM (active).

For the compound `COc1cccc(Cn2nnc(C(=O)Nc3cc(Cl)ccc3OC)c2N)c1`, in [10], the IC50 is > 80 µM (inactive). In addition, the AC50 in assay [20] was 0.498 µM (active).

On to `Cn1c(N)c(C(=O)COC(=O)c2cc(-c3ccccc3)nc3ccccc23)c(=O)n(Cc2ccccc2)c1=O`, for which the AC50 at Cytochrome P450 3A4 is 12.6 µM (inconclusive).

For the compound `C=CCn1c(S)nnc1-c1ccc2[nH]c(C)c(C)c2c1`, the IC50 in assay [2] is > 64 µM (inactive).

Consider `Cc1cc([N+](=O)[O-])ccc1NC(=O)Nc1ccc(F)cc1F`, for which the EC50 in assay [21] is 4.36 µM (active); in assay [24], > 60 µM (not active). Further, the AC50 in assay [22] is 19.6 µM (active); in assay [23], 22.8 µM (active); in [25], 18.8 µM (active); in [26] it was 30.9 µM (active); in [27] it was 30.1 µM (active). In “cells”, the IC50 was 46.7 µM (active). Moreover, the cytotoxic concentration (CC50) was > 20 µM (active) in assay [3], > 20 µM (active) in assay [4] and 20.3 µM (active) in [5].

As for `COc1ccc(S(=O)(=O)N[C@H](C(=O)N2CC[C@@]3(O)CCCC[C@H]3C2)c2ccccc2)cc1`, in assay [16], the concentration for a half-maximal effect (EC50) was > 50 µM (active).

With `CCN1CCN(C(=O)Nc2ccc(Cc3ccc(NC(=O)N4CCN(CC)CC4)cc3)cc2)CC1`, the EC50 in [16] is > 50 µM (active).
